A word on the EC50: it is the concentration needed to bring the measured effect to its halfway point.

Consider 45 compounds from patent US20190031618A1, “BENZIMIDAZOLE DERIVATIVES USEFUL AS CB-1 INVERSE AGONISTS” (Janssen Pharmaceutica NV, priority 2015, published 2019).

For assay [1], the target named is Human CB2R (Cannabinoid receptor 2) (Homo sapiens, UniProt P34972). Nature of the assay: CB-2 in vitro cAMP (HTRF) assay. The format is cell-based. The following applies: HEK cells, cAMP HTRF, 250 nM forskolin; mean where tested more than once; read-out: CB2 HEK_cAMP EC50. The method, boiled down: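 HEK-293 cells stably expressing receptor, plated overnight at 4E5 cells/mL, tested with 1/3 serial dilutions of compound in HBSS/HEPES/BSA buffer with 0.5 mM IBMX and forskolin (diluted to 1.5 μM in buffer). cAMP measured by competitive HTRF immunoassay (d2-cAMP, cryptate anti-cAMP), signal inversely proportional to cAMP.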
Sequence of Human CB2R (Cannabinoid receptor 2) (P34972 whole entry): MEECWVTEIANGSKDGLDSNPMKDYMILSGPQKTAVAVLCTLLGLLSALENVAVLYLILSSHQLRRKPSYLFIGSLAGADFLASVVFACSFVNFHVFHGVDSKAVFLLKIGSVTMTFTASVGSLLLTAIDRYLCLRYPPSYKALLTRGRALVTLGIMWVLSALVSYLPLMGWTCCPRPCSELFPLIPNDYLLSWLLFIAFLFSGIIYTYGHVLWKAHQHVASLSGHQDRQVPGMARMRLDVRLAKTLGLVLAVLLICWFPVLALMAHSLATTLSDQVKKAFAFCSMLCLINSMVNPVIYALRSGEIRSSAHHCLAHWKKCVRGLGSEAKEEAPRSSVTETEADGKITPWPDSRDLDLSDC
A general note: Time-resolved FRET reads energy transfer from a long-lived donor to a nearby acceptor.

For assay [2], the target named is Human CB1R (Cannabinoid receptor 1) (Homo sapiens, UniProt P21554). Nature of the assay: CB-1 in vitro cAMP (HTRF) assay. The format is cell-based. The following applies: HEK cells, cAMP HTRF, 250 nM forskolin; mean where tested more than once; read-out: CB1 HEK_cAMP EC50. The method, boiled down:
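Intracellular cAMP from HTRF ratio (d2-cAMP vs Eu-cryptate anti-cAMP), converted to nM via per-plate standards, in stable human CB1R HEK-293 cells.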

Sequence of Human CB1R (Cannabinoid receptor 1) (P21554 whole entry): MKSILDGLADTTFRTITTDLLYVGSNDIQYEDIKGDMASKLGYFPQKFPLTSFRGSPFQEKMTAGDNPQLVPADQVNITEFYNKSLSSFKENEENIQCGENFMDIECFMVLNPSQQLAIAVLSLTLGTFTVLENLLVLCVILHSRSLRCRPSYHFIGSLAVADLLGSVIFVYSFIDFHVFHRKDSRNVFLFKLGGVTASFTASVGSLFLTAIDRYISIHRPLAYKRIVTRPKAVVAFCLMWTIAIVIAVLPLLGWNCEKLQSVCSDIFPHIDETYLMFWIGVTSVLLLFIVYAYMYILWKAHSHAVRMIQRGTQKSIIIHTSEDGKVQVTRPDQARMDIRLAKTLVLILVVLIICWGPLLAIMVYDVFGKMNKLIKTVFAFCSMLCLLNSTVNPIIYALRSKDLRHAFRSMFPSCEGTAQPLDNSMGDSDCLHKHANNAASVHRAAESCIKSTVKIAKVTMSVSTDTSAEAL

Turning to `O=C(O)c1ccc(C(=O)N2CCC(n3c(C4CC4)nc4ccc(C(c5ccc(Cl)cc5)c5ccc(Cl)cc5)cc43)CC2)cc1` [Example 246], the EC50 in assay [1] is greater than 10000 nM; in assay [2], 1430 nM.
For `NC(=O)CS(=O)(=O)N1CCC(n2c(C3CC3)nc3ccc(C(c4ccc(Cl)cc4)c4ccc(Cl)cc4)cc32)CC1` [Example 247] the same measures were greater than 10000 nM and 128 nM.
For `O=C(O)CS(=O)(=O)N1CCC(n2c(C3CC3)nc3ccc(C(c4ccc(Cl)cc4)c4ccc(Cl)cc4)cc32)CC1` [Example 248] the same measures were greater than 10000 nM and 4240 nM.
For `NC(=O)COc1ccc(S(=O)(=O)N2CCC(n3c(C4CC4)nc4ccc(C(c5ccc(Cl)cc5)c5ccc(Cl)cc5)cc43)CC2)cc1` [Example 249] the same measures were 1710 nM and 5 nM.
As to `COc1cc(S(=O)(=O)N2CCC(n3c(C4CC4)nc4ccc(C(c5ccc(Cl)cc5)c5ccc(Cl)cc5)cc43)CC2)ccc1C(N)=O` [Example 250], the EC50 in assay [1] was found to be 9400 nM; in assay [2], 2.9 nM.
In the same order, the values of `COc1cc(S(=O)(=O)N2CCC(n3c(C4CC4)nc4ccc(C(c5ccc(Cl)cc5)c5ccc(Cl)cc5)cc43)CC2)ccc1C(=O)O` [Example 251] are 730 nM and 5.8 nM.
As for `NC(=O)c1ccc(S(=O)(=O)N2CCC(n3c(C4CC4)nc4ccc(C(c5ccc(Cl)cc5)c5ccc(Cl)cc5)cc43)CC2)cc1Cl` [Example 252], the 50% effective concentration (EC50) came out at 6240 nM in assay [1] and 13.1 nM in assay [2].
As for `O=C(O)c1ccc(S(=O)(=O)N2CCC(n3c(C4CC4)nc4ccc(C(c5ccc(Cl)cc5)c5ccc(Cl)cc5)cc43)CC2)cc1Cl` [Example 253], the values for the EC50 in assay [1] and in assay [2] were 2420 nM and 4.7 nM, respectively.
For `NC(=O)c1ccc(C(=O)N2CCC(n3c(C4CC4)nc4ccc(C(c5ccc(Cl)cc5)c5ccc(Cl)cc5)cc43)CC2)cc1` [Example 254] the same measures were 1250 nM and 36.6 nM.
In the same order, the values of `O=S(=O)(N1CCC(n2c(C3COC3)nc3ccc(C(O)(c4ccc(Cl)cc4)c4ccc(Cl)cc4)cc32)CC1)C(F)(F)F` [Example 255] are greater than 10000 nM and 7.3 nM.
Consider `O=C(O)COc1ccc(S(=O)(=O)N2CCC(n3c(C4CC4)nc4ccc(C(c5ccc(Cl)cc5)c5ccc(Cl)cc5)cc43)CC2)cc1` [Example 256], for which the EC50 in assay [1] is greater than 10000 nM; in assay [2], 129 nM.
For `O=S(=O)(c1ccc(O)cc1)N1CCC(n2c(C3CC3)nc3ccc(C(c4ccc(Cl)cc4)c4ccc(Cl)cc4)cc32)CC1` [Example 257] the same measures were greater than 10000 nM and 5.4 nM.
Turning to `O=S(=O)(c1ccccc1O)N1CCC(n2c(C3CC3)nc3ccc(C(c4ccc(Cl)cc4)c4ccc(Cl)cc4)cc32)CC1` [Example 258], the EC50 in assay [1] was greater than 10000 nM; in assay [2] it was 20.1 nM.
On to `NC(=O)c1cccc(S(=O)(=O)N2CCC(n3c(C4CC4)nc4ccc(C(c5ccc(Cl)cc5)c5ccc(Cl)cc5)cc43)CC2)c1` [Example 260], for which the figures for the concentration for a half-maximal effect (EC50) in assay [1] and in assay [2] were greater than 10000 nM and 1.5 nM, respectively.
As for `COc1cccc(S(=O)(=O)N2CCC(n3c(C4CC4)nc4ccc(C(c5ccc(Cl)cc5)c5ccc(Cl)cc5)cc43)CC2)c1` [Example 261], the EC50 was greater than 10000 nM in assay [1] and 21.9 nM in assay [2].
For the compound `NC(=O)c1ccc(S(=O)(=O)N2CCC(n3c(C4CC4)nc4ccc(C(c5ccc(Cl)cc5)c5ccc(Cl)cc5)cc43)CC2)cc1` [Example 262], the EC50 in assay [1] is greater than 10000 nM; in assay [2], 15.5 nM.
In the same order, the values of `CCc1nc2ccc(C(C(=O)O)(c3ccc(Cl)cc3)c3ccc(Cl)cc3)cc2n1C1CCN(S(=O)(=O)C(F)(F)F)CC1` [Example 266] are greater than 10000 nM and 18.4 nM.
`O=C(O)C(c1ccc(Cl)cc1)(c1ccc(Cl)cc1)c1ccc2nc(C3CC3)n(C3CCN(S(=O)(=O)C(F)(F)F)CC3)c2c1` [Example 267]: the results for the concentration giving a half-maximal response (EC50) in assay [1] and in assay [2] were greater than 10000 nM and 7 nM, respectively.
For `O=C(O)CCC(=O)N1CCC(n2c(C3CC3)nc3ccc(C(c4ccc(Cl)cc4)c4ccc(Cl)cc4)cc32)CC1` [Example 269] the same measures were greater than 10000 nM and 1030 nM.
For `CS(=O)(=O)N1CCC(n2c(C3CC3)nc3ccc(C(c4ccc(Cl)cc4)c4ccc(Cl)cc4)cc32)CC1` [Example 270] the same measures were 9900 nM and 6.6 nM.
For `O=S(=O)(N1CCC(n2c(C3CCCO3)nc3ccc(C(c4ccc(Cl)cc4)c4ccc(Cl)cc4)cc32)CC1)C(F)(F)F` (stereo not drawn) [Example 271] the same measures were greater than 10000 nM and 2.1 nM.
Consider `O=S(=O)(c1ccccc1C(F)(F)F)N1CCC(n2c(C3CC3)nc3ccc(C(c4ccc(Cl)cc4)c4ccc(Cl)cc4)cc32)CC1` [Example 272], for which the figures for the EC50 in assay [1] and in assay [2] were greater than 10000 nM and 10.8 nM, respectively.
In the same order, the values of `NC(=O)CCC(=O)N1CCC(n2c(C3CC3)nc3ccc(C(c4ccc(Cl)cc4)c4ccc(Cl)cc4)cc32)CC1` [Example 273] are 9600 nM and 33.6 nM.
In the same order, the values of `NS(=O)(=O)N1CCC(n2c(C3CC3)nc3ccc(C(c4ccc(Cl)cc4)c4ccc(Cl)cc4)cc32)CC1` [Example 274] are greater than 10000 nM and 133 nM.
In the same order, the values of `COc1ccccc1S(=O)(=O)N1CCC(n2c(C3CC3)nc3ccc(C(c4ccc(Cl)cc4)c4ccc(Cl)cc4)cc32)CC1` [Example 275] are greater than 10000 nM and 1.6 nM.
For the compound `NC(=O)CC(=O)N1CCC(n2c(C3CC3)nc3ccc(C(c4ccc(Cl)cc4)c4ccc(Cl)cc4)cc32)CC1` [Example 278], the results for the concentration for a half-maximal effect (EC50) in assay [1] and in assay [2] were greater than 10000 nM and 50.5 nM, respectively.
For `O=S(=O)(c1ccc(OC(F)(F)F)cc1)N1CCC(n2c(C3CC3)nc3ccc(C(c4ccc(Cl)cc4)c4ccc(Cl)cc4)cc32)CC1` [Example 279] the same measures were greater than 10000 nM and 32.2 nM.
In the same order, the values of `O=S(=O)(c1ccc(C(F)(F)F)cc1)N1CCC(n2c(C3CC3)nc3ccc(C(c4ccc(Cl)cc4)c4ccc(Cl)cc4)cc32)CC1` [Example 280] are greater than 10000 nM and 10.5 nM.
Turning to `COc1ccc(S(=O)(=O)N2CCC(n3c(C4CC4)nc4ccc(C(c5ccc(Cl)cc5)c5ccc(Cl)cc5)cc43)CC2)cc1` [Example 281], the EC50 is greater than 10000 nM in assay [1] and 12.5 nM in assay [2].
Consider `O=S(=O)(c1ccc(F)cc1)N1CCC(n2c(C3CC3)nc3ccc(C(c4ccc(Cl)cc4)c4ccc(Cl)cc4)cc32)CC1` [Example 282], for which the results for the concentration giving a half-maximal response (EC50) in assay [1] and in assay [2] were greater than 10000 nM and 7.3 nM, respectively.
For `O=S(=O)(c1ccccc1)N1CCC(n2c(C3CC3)nc3ccc(C(c4ccc(Cl)cc4)c4ccc(Cl)cc4)cc32)CC1` [Example 283] the same measures were 960 nM and 3.6 nM.
For `O=S(=O)(c1cccc(C(F)(F)F)c1)N1CCC(n2c(C3CC3)nc3ccc(C(c4ccc(Cl)cc4)c4ccc(Cl)cc4)cc32)CC1` [Example 284] the same measures were greater than 10000 nM and 5.7 nM.
For `O=S(=O)(N1CCC(n2c(C3CCCO3)nc3ccc(C(O)(c4ccc(Cl)cc4)c4ccc(Cl)cc4)cc32)CC1)C(F)(F)F` (stereo not drawn) [Example 285] the same measures were greater than 10000 nM and 3.4 nM.
For `COc1cc(C(c2ccc(Cl)cc2)c2ccc(Cl)cc2)cc2c1nc(C1CC1)n2C1CCN(S(=O)(=O)C(F)(F)F)CC1` [Example 287], the EC50 in assay [1] was found to be 4590 nM; in assay [2], 2.4 nM.
For `O=S(=O)(N1CCC(Cn2c(C3CCC3)nc3ccc(C(c4ccc(Cl)cc4)c4ccc(Cl)cc4)cc32)CC1)C(F)(F)F` [Example 288] the same measures were greater than 10000 nM and 2.3 nM.
For the compound `CC(C)(C)c1nc2ccc(C(c3ccc(Cl)cc3)c3ccc(Cl)cc3)cc2n1C1CCN(S(=O)(=O)C(F)(F)F)CC1` [Example 291], the EC50 was greater than 10000 nM in assay [1] and 2260 nM in assay [2].
In the same order, the values of `CC(C)(C)c1nc2ccc(C(O)(c3ccc(Cl)cc3)c3ccc(Cl)cc3)cc2n1C1CCN(S(=O)(=O)C(F)(F)F)CC1` [Example 292] are greater than 10000 nM and 2890 nM.
For `O=S(=O)(N1CCC(n2c(CO)nc3ccc(C(O)(c4ccc(Cl)cc4)c4ccc(Cl)cc4)cc32)CC1)C(F)(F)F` [Example 293] the same measures were greater than 10000 nM and 7430 nM.
For `O=S(=O)(N1CCC(Cn2c(C3CC3)nc3ccc(C(O)(c4ccc(Cl)cc4)c4ccc(Cl)cc4)cc32)CC1)C(F)(F)F` [Example 294] the same measures were greater than 10000 nM and 4.6 nM.
With `O=S(=O)(N1CCC(O)(Cn2c(C3CC3)nc3ccc(C(c4ccc(Cl)cc4)c4ccc(Cl)cc4)cc32)CC1)C(F)(F)F` [Example 295], the EC50 in assay [1] worked out at 9000 nM; in assay [2], 5 nM.
In the same order, the values of `CCc1nc2ccc(C(c3ccc(Cl)cc3)c3ccc(Cl)cc3)cc2n1C1Cc2ccccc2C1` [Example 297] are greater than 10000 nM and 615 nM.
In the same order, the values of `Clc1ccc(C(c2ccc(Cl)cc2)c2ccc3ncn(C4Cc5ccccc5C4)c3c2)cc1` [Example 298] are 9000 nM and 906 nM.
As to `CC(C(O)c1ccccc1)n1c(C2CC2)nc2ccc(C(c3ccc(Cl)cc3)c3ccc(Cl)cc3)cc21` (stereo not drawn) [Example 299], the EC50 in assay [1] was determined as 1030 nM; in assay [2], 578 nM.
In the same order, the values of `Clc1ccc(C(c2ccc(Cl)cc2)c2ccc3nc(C4CC4)n(C4Cc5ccccc5C4)c3c2)cc1` [Example 300] are greater than 10000 nM and 163 nM.
In the same order, the values of `O=S(=O)(N1CCC(n2c(C3CC3)nc3ccc(C(O)(c4ccc(Cl)cc4)c4ccc(Cl)cc4)cc32)CC1)C(F)(F)F` [Example 303] are greater than 10000 nM and 17.4 nM.
